Test results reported in PubChem BioAssay (NCI).
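Growth conditions: 96-well plates. Treatment: test compound, 48 hours, 5 concentrations. Analysis: linear interpolation between bracketing concentrations; unreached endpoints set to highest concentration. Here, GI50 denotes the concentration required for 50% inhibition of growth. TGI: total growth inhibition.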

How the values were obtained:
Experiment in all cases: DTP human tumour cell line panel, 48 h
786-0 renal = system: 786-0 renal
A498 renal = system: A498 renal
A549 NSCLC = system: A549 NSCLC
ACHN renal = system: ACHN renal
BT-549 breast = system: BT-549 breast
CAKI-1 renal = system: CAKI-1 renal
CCRF-CEM leukemia = system: CCRF-CEM leukemia
COLO 205 colon = system: COLO 205 colon
DU-145 prostate = system: DU-145 prostate
HCC-2998 colon = system: HCC-2998 colon
HCT-116 colon = system: HCT-116 colon
HCT-15 colon = system: HCT-15 colon
HL-60(TB) leukemia = system: HL-60(TB) leukemia
HOP-62 NSCLC = system: HOP-62 NSCLC
HOP-92 NSCLC = system: HOP-92 NSCLC
HS 578T breast = system: HS 578T breast
HT29 colon = system: HT29 colon
IGROV1 ovarian = system: IGROV1 ovarian
K-562 leukemia = system: K-562 leukemia
KM12 colon = system: KM12 colon
LOX IMVI melanoma = system: LOX IMVI melanoma
M14 melanoma = system: M14 melanoma
MALME-3M melanoma = system: MALME-3M melanoma
MCF7 breast = system: MCF7 breast
MDA-MB-231 breast = system: MDA-MB-231 breast
MDA-MB-435 = system: MDA-MB-435
MOLT-4 leukemia = system: MOLT-4 leukemia
NCI-H226 lung = system: NCI-H226 lung
NCI-H23 lung = system: NCI-H23 lung
NCI-H460 lung = system: NCI-H460 lung
NCI-H522 lung = system: NCI-H522 lung
NCI/ADR-RES ovarian = system: NCI/ADR-RES ovarian
OVCAR-3 ovarian = system: OVCAR-3 ovarian
OVCAR-4 ovarian = system: OVCAR-4 ovarian
OVCAR-5 ovarian = system: OVCAR-5 ovarian
OVCAR-8 ovarian = system: OVCAR-8 ovarian
PC-3 prostate = system: PC-3 prostate
RPMI-8226 leukemia = system: RPMI-8226 leukemia
RXF 393 renal = system: RXF 393 renal
SF-268 CNS = system: SF-268 CNS
SF-295 CNS = system: SF-295 CNS
SF-539 CNS = system: SF-539 CNS
SK-MEL-2 melanoma = system: SK-MEL-2 melanoma
SK-MEL-28 melanoma = system: SK-MEL-28 melanoma
SK-MEL-5 melanoma = system: SK-MEL-5 melanoma
SK-OV-3 ovarian = system: SK-OV-3 ovarian
SN12C renal = system: SN12C renal
SNB-19 CNS = system: SNB-19 CNS
SNB-75 CNS = system: SNB-75 CNS
SR leukemia = system: SR leukemia
SW-620 colon = system: SW-620 colon
T-47D breast = system: T-47D breast
TK-10 renal = system: TK-10 renal
U251 CNS = system: U251 CNS
UACC-257 melanoma = system: UACC-257 melanoma
UACC-62 melanoma = system: UACC-62 melanoma
UO-31 renal = system: UO-31 renal

O=C1NC(=NCc2cccs2)SC1Cc1ccc2ncccc2c1 (centres undefined)
GI50 (786-0 renal): > 24.1 µM
TGI (786-0 renal): > 25 µM
GI50 (A498 renal): 13.1 µM
TGI (A498 renal): > 25 µM
GI50 (A549 NSCLC): 18.5 µM
TGI (A549 NSCLC): > 25 µM
GI50 (ACHN renal): 24.7 µM
TGI (ACHN renal): > 25 µM
GI50 (BT-549 breast): 20.5 µM
TGI (BT-549 breast): > 25 µM
GI50 (CAKI-1 renal): 19.5 µM
TGI (CAKI-1 renal): > 25 µM
GI50 (CCRF-CEM leukemia): 11.7 µM
TGI (CCRF-CEM leukemia): > 25 µM
GI50 (COLO 205 colon): 10.2 µM
TGI (COLO 205 colon): > 25 µM
GI50 (DU-145 prostate): > 25 µM
TGI (DU-145 prostate): > 25 µM
GI50 (HCC-2998 colon): > 25 µM
TGI (HCC-2998 colon): > 25 µM
GI50 (HCT-116 colon): 10.7 µM
TGI (HCT-116 colon): > 25 µM
GI50 (HCT-15 colon): 11.4 µM
TGI (HCT-15 colon): > 25 µM
GI50 (HL-60(TB) leukemia): 11.8 µM
TGI (HL-60(TB) leukemia): > 25 µM
GI50 (HOP-62 NSCLC): 20.1 µM
TGI (HOP-62 NSCLC): > 25 µM
GI50 (HOP-92 NSCLC): 10.3 µM
TGI (HOP-92 NSCLC): > 25 µM
GI50 (HS 578T breast): 9.87 µM
TGI (HS 578T breast): > 25 µM
GI50 (HT29 colon): 11.7 µM
TGI (HT29 colon): > 25 µM
GI50 (IGROV1 ovarian): > 16.5 µM
TGI (IGROV1 ovarian): > 25 µM
GI50 (K-562 leukemia): 17.3 µM
TGI (K-562 leukemia): > 25 µM
GI50 (KM12 colon): 15.6 µM
TGI (KM12 colon): > 25 µM
GI50 (LOX IMVI melanoma): 19.2 µM
TGI (LOX IMVI melanoma): > 25 µM
GI50 (M14 melanoma): 11 µM
TGI (M14 melanoma): > 25 µM
GI50 (MALME-3M melanoma): 24.7 µM
TGI (MALME-3M melanoma): > 25 µM
GI50 (MCF7 breast): 8.79 µM
TGI (MCF7 breast): > 25 µM
GI50 (MDA-MB-231 breast): > 25 µM
TGI (MDA-MB-231 breast): > 25 µM
GI50 (MDA-MB-435): 7.21 µM
TGI (MDA-MB-435): > 25 µM
GI50 (MOLT-4 leukemia): 14.5 µM
TGI (MOLT-4 leukemia): > 25 µM
GI50 (NCI-H226 lung): > 25 µM
TGI (NCI-H226 lung): > 25 µM
GI50 (NCI-H23 lung): > 25 µM
TGI (NCI-H23 lung): > 25 µM
GI50 (NCI-H460 lung): 11.8 µM
TGI (NCI-H460 lung): > 25 µM
GI50 (NCI-H522 lung): 16.1 µM
TGI (NCI-H522 lung): > 25 µM
GI50 (NCI/ADR-RES ovarian): > 25 µM
TGI (NCI/ADR-RES ovarian): > 25 µM
GI50 (OVCAR-3 ovarian): 13 µM
TGI (OVCAR-3 ovarian): > 25 µM
GI50 (OVCAR-4 ovarian): > 25 µM
TGI (OVCAR-4 ovarian): > 25 µM
GI50 (OVCAR-5 ovarian): > 25 µM
TGI (OVCAR-5 ovarian): > 25 µM
GI50 (OVCAR-8 ovarian): > 25 µM
TGI (OVCAR-8 ovarian): > 25 µM
GI50 (PC-3 prostate): 15.6 µM
TGI (PC-3 prostate): > 25 µM
GI50 (RPMI-8226 leukemia): 16.9 µM
TGI (RPMI-8226 leukemia): > 25 µM
GI50 (RXF 393 renal): > 19.3 µM
TGI (RXF 393 renal): > 25 µM
GI50 (SF-268 CNS): > 23 µM
TGI (SF-268 CNS): > 25 µM
GI50 (SF-295 CNS): 11.6 µM
TGI (SF-295 CNS): > 25 µM
GI50 (SF-539 CNS): 10.3 µM
TGI (SF-539 CNS): > 25 µM
GI50 (SK-MEL-2 melanoma): > 25 µM
TGI (SK-MEL-2 melanoma): > 25 µM
GI50 (SK-MEL-28 melanoma): > 19.9 µM
TGI (SK-MEL-28 melanoma): > 25 µM
GI50 (SK-MEL-5 melanoma): 17.4 µM
TGI (SK-MEL-5 melanoma): > 25 µM
GI50 (SK-OV-3 ovarian): > 25 µM
TGI (SK-OV-3 ovarian): > 25 µM
GI50 (SN12C renal): > 23.6 µM
TGI (SN12C renal): > 25 µM
GI50 (SNB-19 CNS): > 25 µM
TGI (SNB-19 CNS): > 25 µM
GI50 (SNB-75 CNS): 7.49 µM
TGI (SNB-75 CNS): > 25 µM
GI50 (SR leukemia): 8.86 µM
TGI (SR leukemia): > 25 µM
GI50 (SW-620 colon): 9.16 µM
TGI (SW-620 colon): > 25 µM
GI50 (T-47D breast): 24.9 µM
TGI (T-47D breast): > 25 µM
GI50 (TK-10 renal): > 25 µM
TGI (TK-10 renal): > 25 µM
GI50 (U251 CNS): 17.6 µM
TGI (U251 CNS): > 25 µM
GI50 (UACC-257 melanoma): 15.5 µM
TGI (UACC-257 melanoma): > 25 µM
GI50 (UACC-62 melanoma): 15 µM
TGI (UACC-62 melanoma): > 25 µM
GI50 (UO-31 renal): > 23.6 µM
TGI (UO-31 renal): > 25 µM
